Measured values as given in US20030225081A1, “Pyridazinones and triazinones and medicinal use thereof” (priority 2000, published 2003).

Tested on: AMPA receptor
Assay: Suppressing action to calcium influx into nerve cells induced by AMPA
Type: cell-based
Details: Fura2-AM, stimulation with 2 μM AMPA, primary culture of rat embryo cerebral cortex nerve cells, 1 μM MK-801
From the text: Suppressing Action to Calcium Influx into Nerve Cells Induced by AMPA
The suppressing action of the compounds of the present invention to calcium influx into nerve cells induced by AMPA was investigated using the primary culture system of nerve cells of cerebral cortex of embryo of rat.
Cerebral cortex was cut out from the brain of rat of gestational 18 days and treated with trypsin and DNase to disperse the cells. The cells were flown by MEM containing 10% of serum, sown in a culture bottle and astrocytes were proliferated. The astrocytes were re-dispersed by trypsin and sown in a 96-well plate. After incubation for one week, it was confirmed that the astrocytes covered all over the bottom and then the nerve cells of cerebral cortex which was dispersed by the above method were sown thereupon. After incubation for 24 hours, the medium was changed, the incubation was carried out for one week and, after that, the medium was changed to that containing 1 μM of MK-801. Nerve cells which were incubated for not shorter than 8 to 10 days were used.
Calcium influx into the cells was measured using Fura2-AM which was a calcium-sensitive fluorescent dye. It was treated in a medium containing Fura2-AM for 1 hour, incorporated into the cells, exchanged to a Tyrode solution containing 1 μM MK-801 and stimulation was carried out using 2 μM AMPA. Change in the amount of calcium flown into the cells were measured as the change in the fluorescent intensity at the exciting wave length of 340/380 nm. […] As the control compound, GYKI52466 (Le Peillet, et al., Brain Res., 571, 115, 1992) was used.

| SMILES | IC50 |
| --- | --- |
| N#Cc1ccccc1N1N=C(c2ccccn2)CN(c2ccsc2)C1=O [Example 101, 2-(2-Cyanophenyl)-6-(2-pyridyl)-4-(thiophene-3-yl)-4,5-dihydro-1,2,4-triazin-3 (2H)-one] | 100 nM |
| N#Cc1ccccc1N1CC(c2ccccn2)=NN(c2ccccc2)C1=O [Example 104, 4-(2-Cyanophenyl)-2-phenyl-6-(2-pyridyl)-4,5-dihydro-1,2,4-triazin-3 (2H)-one] | 500 nM |
| O=C1N(c2ccsc2)CC(c2ccccn2)=NN1c1ccccc1 [Example 105, 2-Phenyl-6-(2-pyridyl)-4-(thiophen-3-yl)-4,5-dihydro-1,2,4-triazin-3 (2H)-one] | 200 nM |
| O=C1N(c2ccsc2)CC(c2ccccn2)=NN1c1ccccc1Br [Example 106, 2-(2-Bromophenyl)-6-(2-pyridyl)-4-(thiophen-3-yl)-4,5-dihydro-1,2,4-triazin-3 (2H)-one] | 100 nM |
| COc1ccc(N2CC(c3ccccn3)=NN(c3ccccc3)C2=O)c(OC)c1 [Example 107, 4-(2,4-Dimethoxyphenyl)-2-phenyl-6-(2-pyridyl)-4,5-dihydro-1,2,4-triazin-3 (2H)-one] | 300 nM |
| COc1ccccc1C1=NN(c2ccccc2Br)C(=O)N(c2ccsc2)C1 [Example 108, 2-(2-Bromophenyl)-6-(2-methoxyphenyl)-4-(thiophen-3-yl)-4,5-dihydro-1,2,4-triazin-3 (2H)-one] | 4000 nM |
| O=C1N(c2cccnc2)CC(c2ccccn2)=NN1c1ccccc1 [Example 109, 2-Phenyl-6-(2-pyridyl)-4-(3-pyridyl)-4,5-dihydro-1,2,4-triazin-3 (2H)-one] | 300 nM |
| O=C1N(c2cccnc2)CC(c2ccccn2)=NN1c1ccccc1Br [Example 110, 2-(2-Bromophenyl)-6-(2-pyridyl)-4-(3-pyridyl)-4,5-dihydro-1,2,4-triazin-3 (2H)-one] | 100 nM |
| N#Cc1ccccc1N1CC(c2ccccn2)=NN(c2ccccc2Br)C1=O [Example 111, 2-(2-Bromophenyl)-4-(2-cyanophenyl)-6-(2-pyridyl)-4,5-dihydro-1,2,4-triazin-3 (2H)-one] | 400 nM |
| O=C1N(c2ccccc2)CC(c2ccccc2)=NN1c1ccccc1Br [Example 112, 2-(2-Bromophenyl)-4,6-diphenyl-4,5-dihydro-1,2,4-triazin-3 (2H)-one] | 300 nM |
| O=C1N(c2ccccc2Br)CC(c2ccccc2)=NN1c1ccccc1 [Example 113, 4-(2-Bromophenyl)-2,6-diphenyl-4,5-dihydro-1,2,4-triazin-3 (2H)-one] | 7100 nM |
| COc1ccccc1C1=NN(c2ccccc2)C(=O)N(c2ccccc2Br)C1 [Example 115, 4-(2-Bromophenyl)-6-(2-methoxyphenyl)-2-phenyl-4,5-dihydro-1,2,4-triazin-3 (2H)-one] | 7200 nM |
| O=C1N(c2ccccn2)CC(c2ccccn2)=NN1c1ccccc1Br [Example 118, 2-(2-Bromophenyl)-6-(2-pyridyl)-4-(2-pyridyl)-4,5-dihydro-1,2,4-triazin-3 (2H)-one] | 30 nM |
| O=C1N(c2ccccc2)CC(c2ncccn2)=NN1c1ccccc1 [Example 119, 2-Phenyl-4-phenyl-6-(2-pyrimidinyl)-4,5-dihydro-1,2,4-triazin-3 (2H)-one] | 4300 nM |
| O=C1N(c2cccc([N+](=O)[O-])c2)CC(c2ccccn2)=NN1c1ccccc1Br [Example 121, 2-(2-Bromophenyl)-4-(3-nitrophenyl)-6-(2-pyridyl)-4,5-dihydro-1,2,4-triazin-3 (2H)-one] | 400 nM |
| O=C1N(c2ccc(F)cc2)CC(c2ccccn2)=NN1c1ccccc1Br [Example 122, 2-(2-Bromophenyl)-4-(4-fluorophenyl)-6-(2-pyridyl)-4,5-dihydro-1,2,4-triazin-3 (2H)-one] | 200 nM |
| O=Cc1cccc(N2CC(c3ccccn3)=NN(c3ccccc3Br)C2=O)c1 [Example 123, 2-(2-Bromophenyl)-4-(3-formylphenyl)-6-(2-pyridyl)-4,5-dihydro-1,2,4-triazin-3 (2H)-one] | 300 nM |
